In PubChem BioAssay AID2060509 (Molecular Pharmacology Branch, DTP, NCI, 2025):

Tested on: 485176-168-R4-J1-PDC spheroids with HUVEC/MSC, viability
Assay: Anticancer human tumor 485176-168-R4-J1-PDC patient-derived pancreatic adenocarcinoma cell line growth inhibition [GQUAD]
Conditions: for IC50: curve of first compound; for viability, T/C: stronger effect = lower value
Description: DNA G-quadruplex Stabilizer Agents in Combinations in Complex Spheroids
A high-throughput screen of multi-cell type tumor spheroids was designed to identify active combinations of DNA G-quadruplex stabilizer agents and targeted small molecules. Complex spheroids include a stromal component modeled by human endothelial cells (HUVEC) and fibroblasts modeled by human mesenchymal stem cells (MSCs). The concentration ranges selected for each drug and investigational agent were based upon clinically achievable concentrations if the clinical Cmax of the agent was known.
Compounds. The drugs and investigational agents: pidnarulex (CX-5461; NSC782164), APTO-253 (NSC789042), BRACO-19 (NSC847499), peposertib (NSC802822), ceralasertib (NSC780249), elimusertib (NSC800525), camonsertib (NSC841442), AZD-1390 (NSC803789), olaparib (NSC753686), talazoparib (NSC767125), ART-558 (NSC835418), sotorasib (NSC818433), MRTX-1133 (NSC836407), SN-38 (NSC673596), topotecan (NSC609699), etoposide (NSC141540), doxorubicin (NSC123127), gemcitabine (NSC613327), 5-fluorouracil (NSC19893), paclitaxel (NSC125973), vemurafenib (NSC761431), panobinostat (NSC761190), R-306465 (JNJ-16241199; NSC773264), adavosertib (NSC754352), TP-3654 (NSC805149), carboplatin (NSC241240), KSQ-4279 (NSC840948), and staurosporine (NSC755774) were obtained from the National Cancer Institute (NCI) Developmental Therapeutics Program Chemical Repository (34). The FDA-approved anticancer drug set is available from the NCI Developmental Therapeutics Program. […] The stock solutions were prepared in dimethyl sulfoxide (DMSO, Sigma-Aldrich, St. Louis, MO, cat. D2650) at 800-fold the tested concentration and stored at -70 degrees C prior to their use. All drugs and investigational agents were tested over a range starting from a high concentration at or near the clinical Cmax and decreasing in half-log increments. If the clinical Cmax for an agent had not been determined, the highest concentration tested was 10 microM.
2.3 Cell Culture. All cells were maintained in an incubator at 37 degrees C and 5% CO2 with 95% humidity. The PDC lines were cultured according to standard operating procedures established by the NCI PDMR. All PDCs were thawed and cultured in Matrigel-coated flasks prepared with a working solution of 1X Ham's F-12 nutrient mix, without supplementation (Invitrogen, cat. 11765054), 100 U/mL penicillin-streptomycin (Invitrogen, cat. 15140122), and 2.5% Matrigel (Corning Inc., cat. 354248) for the first three passages. The 857933-349-R-J2-PDC line was cultured in 6C/Colon 1B media, which includes advanced DMEM/F-12 (Thermo Fisher Scientific, cat. 12634028), 10 mM HEPES (Thermo Fisher Scientific, cat. 15630080), 1X GlutaMAX supplement (Thermo Fisher Scientific, cat. 35050061), 0.1 mg/mL primocin (InvivoGen, cat. ant-pm-2), 10% defined fetal bovine serum, heat inactivated (HyClone Laboratories Inc., cat. SH30070.03HI), 50% L-WRN conditioned media (ATCC, cat. CRL-3276), 1.25 mM N-Acetyl-L-cysteine (Sigma-Aldrich, cat. A9165), 10 mM nicotinamide (Sigma-Aldrich, cat. N0636), 1X B-27 supplement (Thermo Fisher Scientific, cat. 17504044), 1X N-2 supplement (Thermo Fisher Scientific, cat. 17502048), 10 microM Y-27632 dihydrochloride (Tocris Bioscience, cat. 1254), and 50 ng/mL human EGF recombinant protein (Thermo Fisher Scientific, cat. PHG0311). The 485176-168-R4-J1-PDC line was cultured in Panc media, which includes all 6C/Colon 1B media components plus 100 ng/mL human FGF-10 (Thermo Fisher Scientific, cat. 100-26), 500 nM SB-431542 (Selleckchem, cat. S1067), and gastrin (Tocris, cat. 3006).
[…]

[1] = second compound 0.0316 µM, first compound 0.0316 µM
[2] = second compound 0.0316 µM, first compound 0.316 µM
[3] = second compound 0.1 µM, first compound 0.0316 µM
[4] = second compound 0.1 µM, first compound 0.316 µM
[5] = second compound 0.316 µM, first compound 0.0316 µM
[6] = second compound 0.316 µM, first compound 0.316 µM
[7] = second compound 1 µM, first compound 0.0316 µM
[8] = second compound 1 µM, first compound 0.316 µM
[9] = second compound 3.16 µM, first compound 0.0316 µM
[10] = second compound 3.16 µM, first compound 0.316 µM
[11] = second compound 10 µM, first compound 0.0316 µM
[12] = second compound 10 µM, first compound 0.316 µM
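Further: spheroids exposed to compounds for seven days before readout.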
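Wherever viability, T/C is given: percent viability relative to DMSO vehicle control wells as 100%.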

`Cc1cccc(N(C)C(=O)C2C(O)CCN2c2nc(C)cc(C(F)(F)F)c2C#N)c1` (centres undefined) + CN(C)c1ccc(Nc2c3ccc(NC(=O)CCN4CCCC4)cc3nc3cc(NC(=O)CCN4CCCC4)ccc23)cc1 was tested, and the IC50 (second compound 0.0316 µM) was greater than 10 µM, the IC50 (second compound 0.1 µM) was greater than 10 µM and the IC50 (second compound 0.316 µM) was greater than 10 µM. The IC50 (second compound 1 µM) was greater than 10 µM, the IC50 (second compound 3.16 µM) was greater than 10 µM and the IC50 (second compound 10 µM) was greater than 10 µM. The viability, T/C [1] was 103%, the viability, T/C (second compound 0.0316 µM, first compound 0.1 µM) was 93.5% and the viability, T/C [2] was 86.2%. It also gave a viability, T/C (second compound 0.0316 µM, first compound 1 µM) of 105%, a viability, T/C (second compound 0.0316 µM, first compound 3.16 µM) of 111% and a viability, T/C (second compound 0.0316 µM, first compound 10 µM) of 102%. The viability, T/C [3] was 91.9%, the viability, T/C (second compound 0.1 µM, first compound 0.1 µM) was 102% and the viability, T/C [4] was 98%. It also gave a viability, T/C (second compound 0.1 µM, first compound 1 µM) of 84.2%, a viability, T/C (second compound 0.1 µM, first compound 3.16 µM) of 94.3% and a viability, T/C (second compound 0.1 µM, first compound 10 µM) of 98.9%. For the same compound, the viability, T/C [5] was 106%, the viability, T/C (second compound 0.316 µM, first compound 0.1 µM) was 89.1% and the viability, T/C [6] was 109%. The viability, T/C (second compound 0.316 µM, first compound 1 µM) was 109%, the viability, T/C (second compound 0.316 µM, first compound 3.16 µM) was 118% and the viability, T/C (second compound 0.316 µM, first compound 10 µM) was 94.3%. The viability, T/C [7] was 93.5%, the viability, T/C (second compound 1 µM, first compound 0.1 µM) was 93.6% and the viability, T/C [8] was 104%. For the same compound, the viability, T/C (second compound 1 µM, first compound 1 µM) was 112%, the viability, T/C (second compound 1 µM, first compound 3.16 µM) was 101% and the viability, T/C (second compound 1 µM, first compound 10 µM) was 85.6%. For the same compound, the viability, T/C [9] was 110%, the viability, T/C (second compound 3.16 µM, first compound 0.1 µM) was 95.4% and the viability, T/C [10] was 80.6%. For the same compound, the viability, T/C (second compound 3.16 µM, first compound 1 µM) was 94%, the viability, T/C (second compound 3.16 µM, first compound 3.16 µM) was 111% and the viability, T/C (second compound 3.16 µM, first compound 10 µM) was 98.2%. It also gave a viability, T/C [11] of 97.3%, a viability, T/C (second compound 10 µM, first compound 0.1 µM) of 93% and a viability, T/C [12] of 81.1%. The viability, T/C (second compound 10 µM, first compound 1 µM) was 86.7%, the viability, T/C (second compound 10 µM, first compound 3.16 µM) was 62% and the viability, T/C (second compound 10 µM, first compound 10 µM) was 59.2%.

Compound `Cn1ncnc1[C@H]1c2n[nH]c(=O)c3cc(F)cc(c23)N[C@@H]1c1ccc(F)cc1` + CN(C)c1ccc(Nc2c3ccc(NC(=O)CCN4CCCC4)cc3nc3cc(NC(=O)CCN4CCCC4)ccc23)cc1 has an IC50 (second compound 0.0316 µM) greater than 0.316 µM, an IC50 (second compound 0.1 µM) greater than 0.316 µM and an IC50 (second compound 0.316 µM) greater than 0.316 µM. It also gave an IC50 (second compound 1 µM) greater than 0.316 µM, an IC50 (second compound 3.16 µM) greater than 0.316 µM and an IC50 (second compound 10 µM) greater than 0.316 µM. For the same compound, the viability, T/C (second compound 0.0316 µM, first compound 0.000999 µM) was 92.1%, the viability, T/C (second compound 0.0316 µM, first compound 0.00316 µM) was 91.2% and the viability, T/C (second compound 0.0316 µM, first compound 0.00999 µM) was 101%. For the same compound, the viability, T/C [1] was 98%, the viability, T/C (second compound 0.0316 µM, first compound 0.0999 µM) was 98.9% and the viability, T/C [2] was 92%. For the same compound, the viability, T/C (second compound 0.1 µM, first compound 0.000999 µM) was 102%, the viability, T/C (second compound 0.1 µM, first compound 0.00316 µM) was 124% and the viability, T/C (second compound 0.1 µM, first compound 0.00999 µM) was 107%. For the same compound, the viability, T/C [3] was 93.3%, the viability, T/C (second compound 0.1 µM, first compound 0.0999 µM) was 110% and the viability, T/C [4] was 90.8%. It also gave a viability, T/C (second compound 0.316 µM, first compound 0.000999 µM) of 101%, a viability, T/C (second compound 0.316 µM, first compound 0.00316 µM) of 97.5% and a viability, T/C (second compound 0.316 µM, first compound 0.00999 µM) of 95.3%. It also gave a viability, T/C [5] of 104%, a viability, T/C (second compound 0.316 µM, first compound 0.0999 µM) of 106% and a viability, T/C [6] of 96.5%. It also gave a viability, T/C (second compound 1 µM, first compound 0.000999 µM) of 108%, a viability, T/C (second compound 1 µM, first compound 0.00316 µM) of 91.7% and a viability, T/C (second compound 1 µM, first compound 0.00999 µM) of 114%. It also gave a viability, T/C [7] of 104%, a viability, T/C (second compound 1 µM, first compound 0.0999 µM) of 113% and a viability, T/C [8] of 93.2%. It also gave a viability, T/C (second compound 3.16 µM, first compound 0.000999 µM) of 107%, a viability, T/C (second compound 3.16 µM, first compound 0.00316 µM) of 80.9% and a viability, T/C (second compound 3.16 µM, first compound 0.00999 µM) of 98.6%. The viability, T/C [9] was 95.7%, the viability, T/C (second compound 3.16 µM, first compound 0.0999 µM) was 89.3% and the viability, T/C [10] was 86.8%. The viability, T/C (second compound 10 µM, first compound 0.000999 µM) was 90.1%, the viability, T/C (second compound 10 µM, first compound 0.00316 µM) was 81.4% and the viability, T/C (second compound 10 µM, first compound 0.00999 µM) was 79.6%. It also gave a viability, T/C [11] of 97.7%, a viability, T/C (second compound 10 µM, first compound 0.0999 µM) of 99.5% and a viability, T/C [12] of 78.8%.
